Active and inactive are the calls of the source. How the calls were made is not given here.
System: CCRIS mutagenicity, Ames/micronucleus/aberration tests
Assay: CCRIS mutagenicity studies
[1] = Test System: AMES SALMONELLA TYPHIMURIUM, Strain/Indicator: TA98, Metabolic Activation: HAMSTER, LIVER, S-9, AROCLOR 1254 (10%), Method: PREINCUBATION
[2] = Test System: AMES SALMONELLA TYPHIMURIUM, Strain/Indicator: TA98, Metabolic Activation: NONE, Method: PREINCUBATION
[3] = Test System: AMES SALMONELLA TYPHIMURIUM, Strain/Indicator: TA98, Metabolic Activation: RAT, LIVER, S-9, AROCLOR 1254 (10%), Method: PREINCUBATION
[4] = Test System: AMES SALMONELLA TYPHIMURIUM, Strain/Indicator: TA100, Metabolic Activation: HAMSTER, LIVER, S-9, AROCLOR 1254 (10%), Method: PREINCUBATION
[5] = Test System: AMES SALMONELLA TYPHIMURIUM, Strain/Indicator: TA100, Metabolic Activation: NONE, Method: PREINCUBATION
[6] = Test System: AMES SALMONELLA TYPHIMURIUM, Strain/Indicator: TA100, Metabolic Activation: RAT, LIVER, S-9, AROCLOR 1254 (10%), Method: PREINCUBATION
[7] = Test System: AMES SALMONELLA TYPHIMURIUM, Strain/Indicator: TA1535, Metabolic Activation: HAMSTER, LIVER, S-9, AROCLOR 1254 (10%), Method: PREINCUBATION
[8] = Test System: AMES SALMONELLA TYPHIMURIUM, Strain/Indicator: TA1535, Metabolic Activation: NONE, Method: PREINCUBATION
[9] = Test System: AMES SALMONELLA TYPHIMURIUM, Strain/Indicator: TA1535, Metabolic Activation: RAT, LIVER, S-9, AROCLOR 1254 (10%), Method: PREINCUBATION
[10] = Test System: AMES SALMONELLA TYPHIMURIUM, Strain/Indicator: TA1537, Metabolic Activation: NONE, Method: PREINCUBATION
[11] = Test System: AMES SALMONELLA TYPHIMURIUM, Strain/Indicator: TA98, Metabolic Activation: RAT, LIVER, S-9, AROCLOR 1254, Method: STANDARD PLATE

Oc1cc(Cl)c(Cl)c(Cl)c1
mutagenic call (End Point: IN VITRO CHROMOSOMAL ABERRATIONS, Test System: CHINESE HAMSTER LUNG CELLS (CHL), Metabolic Activation: RAT, LIVER, S-9, KC-400): inactive; negative; authors describe results as equivocal
mutagenic call (End Point: IN VITRO CHROMOSOMAL ABERRATIONS, Test System: CHINESE HAMSTER OVARY CELLS (CHO), Metabolic Activation: NONE): inactive; negative
mutagenic call (End Point: IN VITRO CHROMOSOMAL ABERRATIONS, Test System: CHINESE HAMSTER OVARY CELLS (CHO), Metabolic Activation: RAT, LIVER, S-9, AROCLOR 1254): inactive; negative
mutagenic call (Test System: AMES SALMONELLA TYPHIMURIUM, Strain/Indicator: TA97, Metabolic Activation: HAMSTER, LIVER, S-9, AROCLOR 1254 (10%), Method: PREINCUBATION): inactive; negative
mutagenic call (Test System: AMES SALMONELLA TYPHIMURIUM, Strain/Indicator: TA97, Metabolic Activation: HAMSTER, LIVER, S-9, AROCLOR 1254 (30%), Method: PREINCUBATION): inactive; negative
mutagenic call (Test System: AMES SALMONELLA TYPHIMURIUM, Strain/Indicator: TA97, Metabolic Activation: NONE, Method: PREINCUBATION): inactive; negative
mutagenic call (Test System: AMES SALMONELLA TYPHIMURIUM, Strain/Indicator: TA97, Metabolic Activation: RAT, LIVER, S-9, AROCLOR 1254 (10%), Method: PREINCUBATION): inactive; negative
mutagenic call (Test System: AMES SALMONELLA TYPHIMURIUM, Strain/Indicator: TA97, Metabolic Activation: RAT, LIVER, S-9, AROCLOR 1254 (30%), Method: PREINCUBATION): inactive; negative
mutagenic call [1]: inactive; negative
mutagenic call (Test System: AMES SALMONELLA TYPHIMURIUM, Strain/Indicator: TA98, Metabolic Activation: HAMSTER, LIVER, S-9, AROCLOR 1254 (30%), Method: PREINCUBATION): inactive; negative
mutagenic call [2]: inactive; negative
mutagenic call [3]: inactive; negative
mutagenic call (Test System: AMES SALMONELLA TYPHIMURIUM, Strain/Indicator: TA98, Metabolic Activation: RAT, LIVER, S-9, AROCLOR 1254 (30%), Method: PREINCUBATION): inactive; negative
mutagenic call [4]: inactive; negative
mutagenic call (Test System: AMES SALMONELLA TYPHIMURIUM, Strain/Indicator: TA100, Metabolic Activation: HAMSTER, LIVER, S-9, AROCLOR 1254 (30%), Method: PREINCUBATION): inactive; negative
mutagenic call [5]: inactive; negative
mutagenic call [6]: inactive; negative
mutagenic call (Test System: AMES SALMONELLA TYPHIMURIUM, Strain/Indicator: TA100, Metabolic Activation: RAT, LIVER, S-9, AROCLOR 1254 (30%), Method: PREINCUBATION): inactive; negative
mutagenic call [7]: inactive; negative
mutagenic call (Test System: AMES SALMONELLA TYPHIMURIUM, Strain/Indicator: TA1535, Metabolic Activation: HAMSTER, LIVER, S-9, AROCLOR 1254 (30%), Method: PREINCUBATION): inactive; negative
mutagenic call [8]: inactive; negative
mutagenic call [9]: inactive; negative
mutagenic call (Test System: AMES SALMONELLA TYPHIMURIUM, Strain/Indicator: TA1535, Metabolic Activation: RAT, LIVER, S-9, AROCLOR 1254 (30%), Method: PREINCUBATION): inactive; negative
mutagenic call (Test System: AMES SALMONELLA TYPHIMURIUM, Strain/Indicator: TA1537, Metabolic Activation: HAMSTER, LIVER, S-9, AROCLOR 1254 (30%), Method: PREINCUBATION): inactive; negative
mutagenic call [10]: inactive; negative
mutagenic call (Test System: AMES SALMONELLA TYPHIMURIUM, Strain/Indicator: TA1537, Metabolic Activation: RAT, LIVER, S-9, AROCLOR 1254 (30%), Method: PREINCUBATION): inactive; negative

CCCOc1ccc(N)cc1N
mutagenic call (Test System: AMES SALMONELLA TYPHIMURIUM, Strain/Indicator: TA97, Metabolic Activation: RAT, LIVER, S-9, AROCLOR 1254 (4%), Method: STANDARD PLATE): inactive; negative
mutagenic call (Test System: AMES SALMONELLA TYPHIMURIUM, Strain/Indicator: TA97, Metabolic Activation: RAT, LIVER, S-9, AROCLOR 1254 (10%), Method: STANDARD PLATE): active; positive
mutagenic call (Test System: AMES SALMONELLA TYPHIMURIUM, Strain/Indicator: TA1537, Metabolic Activation: RAT, LIVER, S-9, AROCLOR 1254 (4 OR 10%), Method: STANDARD PLATE): active; positive
mutagenic call (Test System: AMES SALMONELLA TYPHIMURIUM, Strain/Indicator: TA1538, Metabolic Activation: RAT, LIVER, S-9, AROCLOR 1254 (4 OR 10%), Method: STANDARD PLATE): active; positive

CC(=O)N[C@@H](CSC(Cl)=C(Cl)Cl)C(=O)O
mutagenic call [5]: active; positive
mutagenic call (Test System: AMES SALMONELLA TYPHIMURIUM, Strain/Indicator: TA100, Metabolic Activation: RAT, KIDNEY, CYTOSOL, Method: PREINCUBATION): active; positive

CSc1cc(SC)c(N)c(C)c1N
mutagenic call [11]: active; positive

Cc1nc2ccc3ccc4ccc(O)cc4c3c2o1
mutagenic call [11]: active; positive
mutagenic call (Test System: AMES SALMONELLA TYPHIMURIUM, Strain/Indicator: TA98, Metabolic Activation: RAT, LIVER, S-9, AROCLOR, Method: STANDARD PLATE): active; positive

COC(=O)c1ccccc1C(=O)OC
mutagenic call (End Point: IN VITRO CHROMOSOMAL ABERRATIONS, Test System: CHO-LB CELLS, Metabolic Activation: NONE): inactive; negative
mutagenic call (End Point: IN VITRO CHROMOSOMAL ABERRATIONS, Test System: CHO-LB CELLS, Metabolic Activation: RAT, LIVER, S-9, AROCLOR 1254): inactive; negative
mutagenic call [1]: inactive; negative
mutagenic call [2]: inactive; negative
mutagenic call [3]: inactive; negative
mutagenic call [4]: inactive; negative
mutagenic call [5]: inactive; negative
mutagenic call [6]: inactive; negative
mutagenic call (Test System: AMES SALMONELLA TYPHIMURIUM, Strain/Indicator: TA100, Metabolic Activation: RAT, LIVER, S-9, AROCLOR 1254, Method: STANDARD PLATE): inactive; negative
mutagenic call (Test System: AMES SALMONELLA TYPHIMURIUM, Strain/Indicator: TA100, Metabolic Activation: S-9, Method: STANDARD PLATE): inactive; negative
mutagenic call [7]: inactive; negative
mutagenic call [8]: inactive; negative
mutagenic call (Test System: AMES SALMONELLA TYPHIMURIUM, Strain/Indicator: TA1535, Metabolic Activation: NONE, Method: STANDARD PLATE): inactive; negative
mutagenic call [9]: inactive; negative
mutagenic call (Test System: AMES SALMONELLA TYPHIMURIUM, Strain/Indicator: TA1535, Metabolic Activation: S-9, Method: STANDARD PLATE): inactive; negative
mutagenic call (Test System: AMES SALMONELLA TYPHIMURIUM, Strain/Indicator: TA1537, Metabolic Activation: HAMSTER, LIVER, S-9, AROCLOR 1254 (10%), Method: PREINCUBATION): inactive; negative
mutagenic call [10]: inactive; negative
mutagenic call (Test System: AMES SALMONELLA TYPHIMURIUM, Strain/Indicator: TA1537, Metabolic Activation: RAT, LIVER, S-9, AROCLOR 1254 (10%), Method: PREINCUBATION): inactive; negative
mutagenic call (Test System: MOUSE LYMPHOMA, Strain/Indicator: L5178Y (TK+/TK-), Metabolic Activation: NONE, Method: SUSPENSION/PLATE): inactive; negative
mutagenic call (Test System: MOUSE LYMPHOMA, Strain/Indicator: L5178Y (TK+/TK-), Metabolic Activation: RAT LIVER S-9, Method: SUSPENSION/PLATE): active; positive

NNc1nncc2ncccc12
mutagenic call [2]: active; positive
mutagenic call (Test System: AMES SALMONELLA TYPHIMURIUM, Strain/Indicator: TA98, Metabolic Activation: RAT, LIVER, S-9, PCB, Method: PREINCUBATION): active; positive
mutagenic call [5]: active; positive
mutagenic call (Test System: AMES SALMONELLA TYPHIMURIUM, Strain/Indicator: TA100, Metabolic Activation: RAT, LIVER, S-9, PCB, Method: PREINCUBATION): active; positive

— PubChem BioAssay AID1259407 (Chemical Carcinogenesis Research Information System (CCRIS), 2018)
